Reference: patent publication US20250205201A1, “USE OF L-ERGOTHIONEINE FOR ALLEVIATING AND PREVENTING AGE-RELATED LENS DEGENERATION” (NANJING NUTRABUILDING BIO-TECH CO., LTD., priority 2023, published 2025)

What was measured:
Assay type in all cases: in vivo, rat (Sprague-Dawley)
rats' lenses (opacity) = assay: Opacity distribution of lenses in sodium selenite-induced aged rats (ImageJ); conditions: 2 or 10 mg/kg/d by gavage once daily for 6 months, vs non-supplement group
Description: Ten-day-old suckling rats (Sprague-Dawley, SD) were maintained under the barrier conditions in a temperature-controlled environment and fed a commercial mouse chow. All rat pups received a single subcutaneous injection of sodium selenite (20 μmol/kg body weight) on postpartum day 11. The opacity distribution (by surface plot and plot profile) of the rats' lenses were determined from the captured images by ImageJ analysis software after feeding 7 days. Testing opacity distribution aimed to show whether the formation of age-related lens degeneration is successful. The rats were then injected of sodium selenite every two weeks. And then these induced successfully rats were fed a commercial mouse chow for 15 months if succeeding. Then these induced successfully rats were randomly divided into three groups: (1) non-supplement group (Group 1, Con, n=10); (2) L-ergothioncine supplement group with low dosage (Group 2, L-ergothioneine, 2 mg/kg/d, n=10); (3) L-ergothioncine supplement group with high dosage (Group 3, L-ergothioneine, 10 mg/kg/d, n=10). All rats were administered L-ergothioneine for once daily by gavage in normal saline solution for 6 months. The opacity distribution (by surface plot and plot profile) of the rats' lenses were observed from the captured images by ImageJ analysis software at the end of this study.

[1] = system: intracellular chronic reactive oxygen species (ROS) in lens epithelial cells (LEC); assay: Cytosolic ROS level in isolated rat lenses (H2-DCFH-DA staining) after 6 months of supplementation; conditions: FIG. 1
Description: (§1) Ten-day-old suckling rats (Sprague-Dawley, SD) were maintained under the barrier conditions in a temperature-controlled environment and fed a commercial mouse chow. All rat pups received a single subcutaneous injection of sodium selenite (20 μmol/kg body weight) on postpartum day 11. The opacity distribution (by surface plot and plot profile) of the rats' lenses were determined from the captured images by ImageJ analysis software after feeding 7 days. Testing opacity distribution aimed to show whether the formation of age-related lens degeneration is successful. The rats were then injected of sodium selenite every two weeks. And then these induced successfully rats were fed a commercial mouse chow for 15 months if succeeding.
Then these induced successfully rats were randomly divided into three groups: (1) non-supplement group (Group 1, Con, n=10); (2) L-ergothioncine supplement group with low dosage (Group 2, L-ergothioneine, 2 mg/kg/d, n=10); (3) L-ergothioncine supplement group with high dosage (Group 3, L-ergothioneine, 10 mg/kg/d, n=10). All rats were administered L-ergothioneine for once daily by gavage in normal saline solution for 6 months. The opacity distribution (by surface plot and plot profile) of the rats' lenses were observed from the captured images by ImageJ analysis software at the end of this study. […]

Nrf2 = Nrf2 mRNA level in LECs by real-time PCR after 6 months of supplementation; conditions: FIG. 2
Description: as §1, with “succeeding. […]” for “succeeding.”
Nrf2 dependent antioxidant protection system plays a crucial role in scavenging ROS generated during various biochemical reactions. […] Real-time PCR was measured and performed with the following primers: Nrf2 forward 5′-[…]-3′. RNA samples were reverse-transcribed to cDNA and subjected to quantitative PCR, performed with a Light Cycler 96 Real-Time PCR System using the AceQ qPCR SYBR Green Master Mix. […]

## C[N+](C)(C)[C@@H](Cc1c[nH]c(=S)[nH]1)C(=O)[O-] [ergothioneine, L-ergothioneine]
rats' lenses (opacity)
  opacity of lens (opacity distribution by surface plot and plot profile): effectively ameliorate or alleviate the opacity of lens
[1]; 10 mg/kg/d vs 2 mg/kg/d by gavage for 6 months
  efficacy in ROS scavenging, high-dose group compared to low-dose group: approximately double
[1]; 2 and 10 mg/kg/d by gavage for 6 months
  reduction of intracellular chronic ROS levels in LEC compared to the non-supplementation group: more than 25%
Nrf2; high-dose group, 10 mg/kg/d by gavage for 6 months
  increase of Nrf2 mRNA level in LECs over placebo: around 180%
Nrf2; low-dose group, 2 mg/kg/d by gavage for 6 months
  increase of Nrf2 mRNA level in LECs compared to placebo: ~50%
